Tests used:
Format in all cases: cell-based
[1] = tested on: MAPK signaling (pAKT, pErk1/2); assay: Western blot of pAKT and pErk1/2 in KRAS mutant A549 cells treated with EGF, Methotrexate, C225 or combination
Experimental: For Methotrexate treatments, A549 lung tumor cells were treated with 1.0 μM Methotrexate in full serum media for 24 hours followed by withdrawal of Methotrexate and serum starvation (1.0% FBS) for 48 hours in the absence or presence of 5 ng/ml EGF added for the final 10 minutes before harvest of the cells.

[2] = tested on: mutant Ras; assay: Immunocytochemistry staining for RAS in A549 lung tumor cells; conditions: A549 lung tumor cell line, 1.0 micromolar, 48 hours
Experimental: In an exemplary method, the A549 lung tumor cell line was treated for 48 hours with 1.0 micromolar Methotrexate followed by immunocytochemistry staining for RAS on slides.

[3] = tested on: MAPK signaling (pErk1/2); assay: Western blot of pErk1/2 (MAPK signaling) in A549 cells treated with Methotrexate, with or without EGF; conditions: as little as 1.0 μM for 24 hours, then serum starvation 48 hours, with or without 10 ng/ml EGF for final 10 minutes (FIG. 3)
Experimental: Additionally, in vitro cell signaling studies were conduced to examine MAPK signaling in RAS mutant cells treated with Methotrexate. For Methotrexate treatments, A549 lung tumor cells were treated with 1.0 or 10.0 μM Methotrexate in full serum media for 24 hours followed by withdrawal of Methotrexate and serum starvation (1.0% FBS) for 48 hours in the absence or presence of 10 ng/ml EGF added for the final 10 minutes before harvest of the cells. Next, whole cell extracts were isolated for Western blot analysis of pErk1/2 and pAkt. The presence of β-actin served as an internal control for loading differences between lanes.

Compound | activation of the MAPK pathway (pErk1/2 induction) ([1]; EGF stimulation 5 ng/ml for final 10 minutes) | inhibition of pErk1/2 ([1]; EGF stimulation (5 ng/ml), agent alone: 1.0 μM Methotrexate or C225 up to 25 μg/ml) | amount of detectable pAKT and pErk1/2 ([1]; agent by itself (FIG. 4)) | overall abundance of mutant Ras ([2]; vs untreated cells (FIGS. 1 and 2)) | localization of mutant Ras ([2]; vs untreated cells (diffuse and at the membrane)) | basal and EGF-induced pErk1/2 levels [3]
EGF: epidermal growth factor used to stimulate A549 cells (NSDSECPLSHDGYCLHDGVCMYIEALDKYACNCVVGYIGERCQYRDLKWWELR; Epidermal growth factor; UniProt P01133 971-1023, looked up) | potently activated | – | – | – | – | –
CN(Cc1cnc2nc(N)nc(N)c2n1)c1ccc(C(=O)N[C@@H](CCC(=O)O)C(=O)O)cc1 [Methotrexate] | – | only slightly inhibited | slight reduction | diminished | mislocalization from the plasma membrane resulting in highly cytoplasmic staining of mutant Ras | reduced both basal and EGF-induce pErk1/2 levels

Source: patent US20110059081A1, “METHODS AND COMPOSITIONS FOR THE TREATMENT OF RECEPTOR TYROSINE KINASE MEDIATED DISEASES OR DISORDERS” (QUINTILES TRANSNATIONAL CORP., priority 2009, published 2011)
